For one assay, the system named is Citrobacter freundii. In words: Microbroth dilution assay, MIC. To be noted: short derived peptides, 2.75 to 700 µg/mL, overnight 37 °C, read at 600 nm, three independent experiments. Type of assay: cell-based. The method, then:
(§1) The β-defensins were tested using a microbroth dilution assay. It consists of incubating the bacteria (4.105 colony-forming unit—CFU/mL) and the peptide (from 1 to 512 µg/mL) in liquid broth. After the incubation at 37 °C during the night, the bacterial growth was detected by spectrophotometry at 600 nm. If the measure is similar to the broth, it […]. […] The β-defensins were tested against B. jararaca oral flora because it would be of biological and medical interest. In addition, we tested on E. coli ATCC 25922 and M. luteus that are common Gram-negative and Gram-positive bacteria used in antibacterial tests.
(§2) The antibacterial activity of the alkylated peptides was tested against Gram-negative (G−) bacteria (Klebsiella pneumonia, Serratia marcescens, Morganella morganii, Providencia rettgeri, Citrobacter freundii, Escherichia coli ATCC 25922 and Gram-positive (G+) bacteria (Micrococcus luteus A270 and Staphylococcus aureus) using microbroth assay. In a 96-well plate, 90 µL of 10% tryptone soy broth (TSB) with 4 × 10^5 colony-forming unit (CFU/mL) were mixed with serial twofold dilutions of β-defensins duplicate in concentrations from 512 to 1 µg/mL. The derived peptides coded as PS1, PS2, PS3, PS5, and PS6 (Table 1) were tested against these bacteria in serial twofold dilutions with concentrations bellow 700 µg/mL. After overnight incubation at 37 °C, the turbidity of the bacterial culture was read at 600 nm (Epoch microplate reader, Biotek). The minimal inhibitory concentration (MIC) of each peptide was determined as the lowest concentration that results in no visible bacterial growth. The MIC resulted from three independent experiments. The bacteria K. pneumonia, S. marcescens, M. morganii, P. rettgeri, C. freundii, M. luteus A270 and S. aureus were isolated from Bothrops jararaca buccal flora and kindly provided by Dr. Márcia R. Franzolin (Laboratory of Bacteriology—Instituto Butantan). M. luteus was kindly provided by Dr. Pedro I. da Silva Jr. (Laboratory of Applied Toxinology—Instituto Butantan).

The test system of assay [1] is Escherichia coli ATCC 25922. The assay can be described thus: Microbroth dilution assay, MIC. Type of assay: cell-based. To be noted: short derived peptides, 2.75 to 700 µg/mL, overnight 37 °C, read at 600 nm, three independent experiments. The method, then: as §1, §2
Background: Broth dilution looks for growth in wells or tubes with falling amounts of substance.

The next assay deals with Micrococcus luteus A270. The assay can be described thus: Microbroth dilution assay, MIC. The format is cell-based. The conditions noted are these: short derived peptides, 2.75 to 700 µg/mL, overnight 37 °C, read at 600 nm, three independent experiments. The protocol: as §1, §2
In a further assay the test system is Staphylococcus aureus. In words: Microbroth dilution assay, MIC. The format is cell-based. To be noted: short derived peptides, 2.75 to 700 µg/mL, overnight 37 °C, read at 600 nm, three independent experiments. The method, then:
as §1, §2

The next assay concerns Klebsiella pneumonia. In words: Microbroth dilution assay, MIC. The format is cell-based, Klebsiella pneumoniae. The conditions noted are these: short derived peptides, 2.75 to 700 µg/mL, overnight 37 °C, read at 600 nm, three independent experiments. The protocol:
as §1, §2

Assay [2] deals with Aspergillus fumigatus (IOC 4526). In words: Resazurin microtiter assay plate, antifungal MIC90. The format is cell-based. To be noted: resazurin colour change, RPMI 1640, 1 to 250 μM, 28 °C, 24–72 h; three independent experiments. The protocol:
(§3) The derived peptides were also tested against fungi species using the classical resazurin microtiter assay plate method. It is based on the color change of the rezazurin dye that in blue indicates the absence of growth in at least 90%, and pink refers to microorganism growth. MIC is determined as the minimal concentration of the sample that can prevent the color change from blue to pink and refers to the inhibition of 90% of microorganisms.
(§4) The antifungal activity was evaluated by the microdilution assay as previously described on clinical strains of Candida albicans (IOC 4525), Cryptococcus neoformans (IOC 4528), Trichophyton rubrum (IOC 4527) and Aspergillus fumigatus (IOC 4526). The fungi were cultivated in potato dextrose agar at 28 °C according to the Clinical and Laboratory Standards Institute recommendations. Fungal suspensions were prepared in RPMI 1640 culture media; the CFU/mL was adjusted to 0.5–2.5 × 10^3 for yeasts (C. albicans and C. neoformans) and 0.4–5 × 10^4 CFU/mL for filamentous fungi (T. rubrum e A. fumigatus), by comparison with a standard curve previously stablished in our laboratory.
(§5) The peptides PS1, PS2, PS, PS3, PS4, PS5 and PS6 at 1 mM in acetic acid at 0.01% were diluted in RPMI 1640 culture media at concentrations ranging from 1 to 250 μM. Amphotericin B (AMB) at concentrations below 15 μg/mL (16 μM) and acetic acid from 0.0002 to 0.0025% was used as control.
(§6) The fungi suspensions were added to a 96 well plate (100 µL/well) and the samples (100 µL) in different concentrations were added to each well. The plate was incubated at 28 °C for 24–72 h, and 24 h before the end of the assay 25 µL of the rezazurin dye at 0.02% were added to each well. The minimal inhibitory concentration (MIC90) was defined as the lowest concentration that prevents the rezazurin’s change in color from blue to pink due to the inhibition of at least 90% of the microorganism’s growth. The assays were performed in three independent experiments.
A general note: Alamar Blue is a resazurin reagent that responds to reducing activity.

In assay [3] the test system is Candida albicans (IOC 4525). In words: Resazurin microtiter assay plate, antifungal MIC90. To be noted: resazurin colour change, RPMI 1640, 1 to 250 μM, 28 °C, 24–72 h; three independent experiments. The format is cell-based. The method, then: as §3, §4, §5, §6
The test system of assay [4] is Cryptococcus neoformans (IOC 4528). The assay can be described thus: Resazurin microtiter assay plate, antifungal MIC90. Type of assay: cell-based. The conditions noted are these: resazurin colour change, RPMI 1640, 1 to 250 μM, 28 °C, 24–72 h; three independent experiments. The method, then:
as §3, §4, §5, §6

For assay [5], the system named is Trichophyton rubrum (IOC 4527). The assay can be described thus: Resazurin microtiter assay plate, antifungal MIC90. Type of assay: cell-based. To be noted: resazurin colour change, RPMI 1640, 1 to 250 μM, 28 °C, 24–72 h; three independent experiments. The method, then: as §3, §4, §5, §6

In brackets after ≈: the same amount, converted by molar mass. Residues, ends and D or L forms follow the SMILES beside them.

On to `N=C(N)NCCC[C@H](NC(=O)CNC(=O)[C@@H]1CCCN1C(=O)CNC(=O)[C@@H](N)CO)C(=O)N[C@@H](CCCNC(=N)N)C(=O)N[C@@H](CO)C(=O)N[C@@H](CO)C(=O)N[C@@H](CCCNC(=N)N)C(=O)N[C@@H](CCCNC(=N)N)C(=O)N[C@@H](CCCNC(=N)N)C(=O)N[C@@H](CCCCN)C(=O)O` [PS3] (H-SGPGRRSSRRRK-OH), for which, in the assay on Citrobacter freundii, the “MIC, C. freundii” value was greater than 500 µM. The “MIC, E. coli” value in assay [1] is greater than 500 µM. Moreover, in the assay with Micrococcus luteus A270, the “MIC, M. luteus” value is 31.5 µM (≈ 44.1 µg/mL). Further, the “MIC, S. aureus” value with Staphylococcus aureus was 125 µM (≈ 175 µg/mL). Besides, the “MIC, K. pneumoniae” value against Klebsiella pneumonia is recorded as greater than 500 µM. The “MIC90, Aspergillus fumigatus” value in assay [2] was greater than 250 µM. For the same molecule, the “MIC90, Candida albicans” value in assay [3] is listed as greater than 250 µM. In addition, the “MIC90, Cryptococcus neoformans” value in [4] is greater than 250 µM. For the same molecule, the “MIC90, Trichophyton rubrum” value in assay [5] is on record as greater than 250 µM.

Take `N=C(N)NCCC[C@H](NC(=O)CNC(=O)[C@@H]1CCCN1C(=O)CNC(=O)[C@@H](N)CO)C(=O)N[C@@H](CCCNC(=N)N)C(=O)N[C@@H](CO)C(=O)N[C@@H](CO)C(=O)N[C@@H](CCCNC(=N)N)C(=O)N[C@@H](CCCNC(=N)N)C(=O)N[C@@H](CCCNC(=N)N)C(=O)N[C@@H](Cc1c[nH]c2ccccc12)C(=O)N[C@@H](CCCCN)C(=O)O` [PS5] (H-SGPGRRSSRRRWK-OH): the “MIC, C. freundii” value with Citrobacter freundii is recorded as 110 µM (≈ 174 µg/mL). In addition, the “MIC, E. coli” value in [1] is given as 55.2 µM (≈ 87.5 µg/mL). Further, the “MIC, M. luteus” value against Micrococcus luteus A270 turned out to be 13.9 µM (≈ 22 µg/mL). In addition, the “MIC, S. aureus” value in the assay on Staphylococcus aureus came to 27.7 µM (≈ 43.9 µg/mL). Also, the “MIC, K. pneumoniae” value with Klebsiella pneumonia stood at 27.7 µM (≈ 43.9 µg/mL). Also, the “MIC90, Aspergillus fumigatus” value in assay [2] is reported as greater than 250 µM. Moreover, in [3], the “MIC90, Candida albicans” value is on record as greater than 250 µM. For the same molecule, the “MIC90, Cryptococcus neoformans” value in assay [4] is listed as greater than 250 µM. Also, the “MIC90, Trichophyton rubrum” value in assay [5] is listed as greater than 250 µM.

Take `CSCC[C@H](NC(=O)[C@H](CCC(N)=O)NC(=O)[C@@H](N)CO)C(=O)NCC(=O)N[C@@H](CCCNC(=N)N)C(=O)N[C@@H](CCSC)C(=O)N[C@@H](CO)C(=O)N[C@@H](CO)C(=O)N[C@@H](CCCNC(=N)N)C(=O)N[C@@H](CCCNC(=N)N)C(=O)N[C@@H](CCCNC(=N)N)C(=O)N[C@@H](Cc1ccccc1)C(=O)NCC(=O)N[C@@H](CCCCN)C(=O)O` [PS2] (H-SQMGRMSSRRRFGK-OH): the “MIC, C. freundii” value in the assay on Citrobacter freundii is greater than 415 µM. The “MIC, E. coli” value in assay [1] was found to be 415 µM (≈ 699 µg/mL). In addition, in the assay on Micrococcus luteus A270, the “MIC, M. luteus” value is reported as 26.1 µM (≈ 44 µg/mL). Further, the “MIC, S. aureus” value with Staphylococcus aureus was determined as 415 µM (≈ 699 µg/mL). Besides, the “MIC, K. pneumoniae” value against Klebsiella pneumonia was greater than 415 µM. Further, in [2], the “MIC90, Aspergillus fumigatus” value was greater than 250 µM. For the same molecule, in [3], the “MIC90, Candida albicans” value is listed as greater than 250 µM. In assay [4], the “MIC90, Cryptococcus neoformans” value is on record as greater than 250 µM. Further, the “MIC90, Trichophyton rubrum” value in [5] was greater than 250 µM.

For the molecule `N=C(N)NCCC[C@H](NC(=O)[C@H](Cc1c[nH]c2ccccc12)NC(=O)[C@H](CCCNC(=N)N)NC(=O)[C@@H](N)CO)C(=O)N[C@@H](Cc1c[nH]c2ccccc12)C(=O)N[C@@H](CCCCN)C(=O)N[C@@H](CO)C(=O)N[C@@H](CO)C(=O)N[C@@H](CCCCN)C(=O)N[C@@H](CCCCN)C(=O)NCC(=O)N[C@@H](CO)C(=O)NCC(=O)O` [PS1] (H-SRWRWKSSKKGSG-OH), the “MIC, C. freundii” value in the assay with Citrobacter freundii worked out at 113 µM (≈ 175 µg/mL). Besides, in assay [1], the “MIC, E. coli” value amounted to 56.5 µM (≈ 87.6 µg/mL). Moreover, the “MIC, M. luteus” value with Micrococcus luteus A270 turned out to be 28.4 µM (≈ 44 µg/mL). Besides, the “MIC, S. aureus” value in the assay with Staphylococcus aureus was 56.5 µM (≈ 87.6 µg/mL). Further, in the assay on Klebsiella pneumonia, the “MIC, K. pneumoniae” value was greater than 452 µM. Besides, the “MIC90, Aspergillus fumigatus” value in [2] is greater than 250 µM. Also, the “MIC90, Candida albicans” value in [3] is reported as greater than 250 µM. Besides, the “MIC90, Cryptococcus neoformans” value in assay [4] was greater than 250 µM. Also, in assay [5], the “MIC90, Trichophyton rubrum” value was greater than 250 µM.

The values above are taken from article PMC8777785, “Antimicrobial Activity of Snake β-Defensins and Derived Peptides” (Toxins, 2021).
